Measured values reported in ChEMBL document CHEMBL1129665, “2-Sulfonyl-4-chloroanilino moiety: a potent pharmacophore for the anti-human immunodeficiency virus type 1 activity of pyrrolyl aryl sulfones” (J Med Chem, 1996).

Legend:
[1] = biological target: Human immunodeficiency virus type 1 reverse transcriptase (Human immunodeficiency virus 1, UniProt Q72547, L100I); experiment: Inhibitory activity against HIV rRT activity in HIV-1 mutant resistant to TIBO(L100I) strain
[2] = biological target: Human immunodeficiency virus type 1 reverse transcriptase (Human immunodeficiency virus 1, UniProt Q72547, Y181C); experiment: Inhibitory activity against HIV rRT activity in mutant HIV-1 strain resistant to Nevirapine (Y181C)
[3] = biological target: Human immunodeficiency virus type 1 reverse transcriptase (Human immunodeficiency virus 1, UniProt Q72547); experiment: Inhibitory activity against HIV rRT activity in wild type IIIB strain
[4] = biological target: Human immunodeficiency virus type 2 pol protein (Human immunodeficiency virus 2, UniProt P88142); experiment: Inhibitory activity against HIV rRT activity in HIV-2
[5] = system: MT4; experiment: Concentration required to reduce the viability of mock-infected MT-4 cells by 50%; assay type: functional; details: Homo sapiens
[6] = system: MT4; experiment: Effective concentration against HIV-1 induced cytopathogenicity in MT-4 cells; assay type: functional, cell-based; details: Homo sapiens
[7] = system: MT4; experiment: Selectivity index expressed as the ratio of CC50/ EC50; assay type: functional, Homo sapiens

Human immunodeficiency virus type 2 pol protein, sequence (P88142 whole entry): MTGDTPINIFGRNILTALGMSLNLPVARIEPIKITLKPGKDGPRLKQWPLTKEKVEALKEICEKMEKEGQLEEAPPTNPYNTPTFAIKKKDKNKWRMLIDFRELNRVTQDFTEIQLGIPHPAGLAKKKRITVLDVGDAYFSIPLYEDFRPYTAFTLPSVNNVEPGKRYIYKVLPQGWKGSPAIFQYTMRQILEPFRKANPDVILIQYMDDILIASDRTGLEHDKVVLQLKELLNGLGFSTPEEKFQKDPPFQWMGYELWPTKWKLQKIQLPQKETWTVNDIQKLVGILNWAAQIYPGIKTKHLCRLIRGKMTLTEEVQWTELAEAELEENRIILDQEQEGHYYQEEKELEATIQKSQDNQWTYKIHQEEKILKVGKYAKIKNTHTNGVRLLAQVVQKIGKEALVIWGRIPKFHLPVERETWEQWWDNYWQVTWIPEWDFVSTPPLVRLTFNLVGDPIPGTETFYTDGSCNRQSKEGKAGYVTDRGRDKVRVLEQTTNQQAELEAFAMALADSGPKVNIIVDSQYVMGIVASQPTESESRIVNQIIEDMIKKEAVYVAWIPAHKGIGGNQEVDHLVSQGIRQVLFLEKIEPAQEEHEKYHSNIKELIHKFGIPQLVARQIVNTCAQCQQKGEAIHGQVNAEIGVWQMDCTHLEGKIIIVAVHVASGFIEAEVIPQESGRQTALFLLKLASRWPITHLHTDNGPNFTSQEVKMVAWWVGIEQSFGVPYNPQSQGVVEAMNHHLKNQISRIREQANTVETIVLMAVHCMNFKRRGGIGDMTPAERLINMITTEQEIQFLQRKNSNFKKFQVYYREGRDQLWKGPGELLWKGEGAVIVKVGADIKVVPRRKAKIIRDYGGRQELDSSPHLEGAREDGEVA

Row | SMILES | IC50 [1] | IC50 [2] | IC50 [3] | IC50 [4] | CC50 [5] | EC50 [6] | Ratio [7]
1 | CC(C)=CCN1Cc2cccc3nc(S)n(c23)C[C@H]1C | > 20 µM | 9 µM | 0.9 µM | > 20 µM | – | – | –
2 | CCOC(=O)c1cc2ccccc2n1S(=O)(=O)c1cc(Cl)ccc1N | – | – | – | – | 50 µM | 1.8 µM | 28
3 | O=[N+]([O-])c1ccc(Cl)c(S(=O)(=O)n2ccc3ccccc32)c1 | – | – | – | – | 3 µM | > 3 µM | –
4 | Nc1ccc(Cl)cc1S(=O)(=O)n1ccc2ccccc21 | – | – | – | – | 1 µM | 1 µM | –
5 | CCOC(=O)c1cccn1S(=O)(=O)c1cc(C)ccc1[N+](=O)[O-] | > 20 µM | > 20 µM | 5 µM | > 20 µM | > 300 µM | 9.8 µM | >30.6
6 | CCOC(=O)c1cccn1S(=O)(=O)c1ccccc1[N+](=O)[O-] | – | – | – | – | > 300 µM | 15 µM | >20
7 | Nc1ccc(Cl)c(S(=O)(=O)n2ccc3ccccc32)c1 | – | – | – | – | > 300 µM | 150 µM | >2
8 | O=[N+]([O-])c1cc(Cl)ccc1S(=O)(=O)n1cccc1 | – | – | – | – | 15 µM | > 15 µM | –
9 | CCOC(=O)CC(=O)Nc1ccc(Cl)cc1S(=O)(=O)n1cccc1C(=O)OCC | > 20 µM | > 20 µM | > 20 µM | > 20 µM | 290 µM | 2.6 µM | 111
10 | CCN(CC)CCOC(=O)c1cccn1S(=O)(=O)c1cc(Cl)ccc1N | – | – | – | – | 162 µM | 12 µM | 13.5
11 | CCOC(=O)c1cccn1S(=O)(=O)c1cc(Cl)ccc1NC | – | – | – | – | 300 µM | > 300 µM | –
12 | CCCOC(=O)c1cccn1S(=O)(=O)c1cc(Cl)ccc1N | 10 µM | 5 µM | 0.4 µM | > 20 µM | 110 µM | 0.22 µM | 500
13 | CCOC(=O)c1cccn1S(=O)(=O)c1ccc(Cl)cc1[N+](=O)[O-] | – | – | – | – | > 300 µM | 15 µM | >20
14 | CCOC(=O)c1cccn1S(=O)(=O)c1cc(Cl)ccc1NC=O | > 20 µM | > 20 µM | > 20 µM | > 20 µM | > 300 µM | 1 µM | >300
15 | CCOC(=O)c1cc2ccccc2n1S(=O)(=O)c1cc(Cl)ccc1[N+](=O)[O-] | – | – | – | – | > 100 µM | > 100 µM | –
16 | CCN(CC)CCOC(=O)c1cccn1S(=O)(=O)c1cc(Cl)ccc1[N+](=O)[O-] | – | – | – | – | 30 µM | > 30 µM | –
17 | CCOC(=O)c1cccn1S(=O)(=O)c1cc(Cl)ccc1[N+](=O)[O-] | – | – | – | – | 12 µM | > 12 µM | –
18 | O=[N+]([O-])c1ccccc1S(=O)(=O)n1ccc2ccccc21 | – | – | – | – | 24 µM | 5 µM | 5
19 | Nc1cc(Cl)ccc1S(=O)(=O)n1cccc1 | – | – | – | – | 75 µM | > 75 µM | –
20 | O=C(O)c1cccn1S(=O)(=O)c1ccccc1Cl | – | – | – | – | > 300 µM | 247 µM | –
21 | O=[N+]([O-])c1ccc(Cl)cc1S(=O)(=O)n1ccc2ccccc21 | – | – | – | – | 2 µM | > 2 µM | –
22 | O=C(NCc1ccccc1)c1cccn1S(=O)(=O)c1ccccc1F | – | – | – | – | > 300 µM | 40 µM | 7
23 | CCCCNc1ccc(Cl)cc1S(=O)(=O)n1cccc1C(=O)OCC | – | – | – | – | > 300 µM | > 300 µM | –

Row | SMILES | IC50 [1] | IC50 [2] | IC50 [3] | IC50 [4] | CC50 [5] | EC50 [6] | Ratio [7]
24 | CCNc1ccc(Cl)cc1S(=O)(=O)n1cccc1C(=O)OCC | – | – | – | – | 300 µM | > 300 µM | –
25 | CCOC(=O)c1cccn1S(=O)(=O)c1ccccc1Cl | – | – | – | – | 141 µM | 27 µM | 5
26 | COC(=O)c1cccn1S(=O)(=O)c1cc([N+](=O)[O-])ccc1Cl | – | – | – | – | 12 µM | > 12 µM | –
27 | Nc1ccccc1S(=O)(=O)n1cccc1 | – | – | – | – | 228 µM | > 228 µM | –
28 | CC(C)OC(=O)c1cccn1S(=O)(=O)c1cc(Cl)ccc1N | 14 µM | 8 µM | 0.27 µM | > 20 µM | > 300 µM | 0.14 µM | >2140
29 | CNc1ccccc1S(=O)(=O)n1cccc1 | – | – | – | – | > 300 µM | > 300 µM | –
30 | Nc1ccc(Cl)cc1S(=O)(=O)n1cccc1 | – | – | – | – | 165 µM | 95 µM | 2
31 | O=CNNC(=O)c1cccn1S(=O)(=O)c1ccccc1F | – | – | – | – | 300 µM | > 300 µM | –
32 | COC(=O)c1cccn1S(=O)(=O)c1cc(N)ccc1Cl | – | – | – | – | 150 µM | 75 µM | 2
33 | Nc1ccc(Cl)cc1S(=O)(=O)n1cccc1C(=O)OCc1ccccc1 | – | – | – | – | > 300 µM | 150 µM | >2
34 | CCOC(=O)c1cccn1S(=O)(=O)c1cc(N)ccc1Cl | – | – | – | – | 72 µM | > 72 µM | –
35 | CCOC(=O)c1cccn1S(=O)(=O)c1cc(Cl)ccc1NC(=O)CC | > 20 µM | > 20 µM | > 20 µM | > 20 µM | > 300 µM | 1 µM | >300
36 | COC(=O)c1cccn1S(=O)(=O)c1cc(Cl)ccc1N | 7.4 µM | 6.9 µM | 0.45 µM | > 20 µM | > 300 µM | 0.18 µM | >1666
37 | COC(=O)c1cccn1S(=O)(=O)c1ccc(Cl)cc1N | – | – | – | – | 248 µM | > 248 µM | –
38 | O=C(OCc1ccccc1)c1cccn1S(=O)(=O)c1cc(Cl)ccc1[N+](=O)[O-] | – | – | – | – | 300 µM | > 300 µM | –
39 | CC(C)OC(=O)c1cccn1S(=O)(=O)c1cc(Cl)ccc1[N+](=O)[O-] | – | – | – | – | > 300 µM | 30 µM | >10
40 | COC(=O)c1cccn1S(=O)(=O)c1ccccc1[N+](=O)[O-] | – | – | – | – | > 300 µM | 5 µM | >60
41 | CCCOC(=O)c1cccn1S(=O)(=O)c1cc(Cl)ccc1[N+](=O)[O-] | – | – | – | – | 10 µM | > 10 µM | –
42 | O=C(O)c1cccn1S(=O)(=O)c1ccccc1F | – | – | – | – | > 300 µM | > 300 µM | –
43 | CCOC(=O)c1cccn1S(=O)(=O)c1cc(Cl)c(Cl)cc1[N+](=O)[O-] | – | – | – | – | 5 µM | > 5 µM | –
44 | O=[N+]([O-])c1cc(Cl)ccc1S(=O)(=O)n1ccc2ccccc21 | – | – | – | – | 8 µM | > 8 µM | –
45 | Nc1ccc(Cl)c(S(=O)(=O)n2cccc2)c1 | – | – | – | – | 91 µM | > 91 µM | –
46 | CCOC(=O)c1cccn1S(=O)(=O)c1ccc(Cl)cc1N | – | – | – | – | 238 µM | > 238 µM | –

Row | SMILES | IC50 [1] | IC50 [2] | IC50 [3] | IC50 [4] | CC50 [5] | EC50 [6] | Ratio [7]
47 | CCOC(=O)c1cccn1S(=O)(=O)c1cc(Cl)ccc1N | 8.5 µM | 7.5 µM | 0.4 µM | > 20 µM | > 300 µM | 0.14 µM | >2140
48 | CCOC(=O)c1cccn1S(=O)(=O)c1ccccc1N | – | – | – | – | > 300 µM | 10 µM | >30
49 | C=CCOC(=O)c1cccn1S(=O)(=O)c1cc(Cl)ccc1[N+](=O)[O-] | – | – | – | – | 4.3 µM | > 4.3 µM | –
50 | CC(=O)c1cccn1S(=O)(=O)c1ccccc1[N+](=O)[O-] | – | – | – | – | 100 µM | 2 µM | 50
51 | O=C(NC1CCCCC1)c1cccn1S(=O)(=O)c1ccccc1F | – | – | – | – | 300 µM | > 300 µM | –
52 | COC(=O)c1cccn1S(=O)(=O)c1cc(Cl)ccc1[N+](=O)[O-] | – | – | – | – | 12 µM | 10 µM | 1.2
53 | C=CCOC(=O)c1cccn1S(=O)(=O)c1cc(Cl)ccc1N | > 20 µM | 14 µM | 0.9 µM | > 20 µM | 100 µM | 0.4 µM | 250
54 | COC(=O)c1cccn1S(=O)(=O)c1ccc(Cl)cc1[N+](=O)[O-] | – | – | – | – | > 300 µM | > 300 µM | –
55 | O=[N+]([O-])c1ccc(Cl)c(S(=O)(=O)n2cccc2)c1 | – | – | – | – | 2 µM | > 2 µM | –
56 | O=[N+]([O-])c1ccccc1S(=O)(=O)n1cccc1 | – | – | – | – | 36 µM | > 36 µM | –
57 | O=[N+]([O-])c1ccc(Cl)cc1S(=O)(=O)n1cccc1 | – | – | – | – | 2 µM | > 2 µM | –
58 | Nc1cc(Cl)ccc1S(=O)(=O)n1ccc2ccccc21 | – | – | – | – | 37 µM | > 37 µM | –
59 | Nc1ccccc1S(=O)(=O)n1ccc2ccccc21 | – | – | – | – | 58 µM | 11 µM | 5
60 | CCOC(=O)c1cccn1S(=O)(=O)c1cc(C)ccc1N | > 20 µM | > 20 µM | 4 µM | > 20 µM | > 300 µM | 1.7 µM | >176
61 | O=C(NC1CC1)c1cccn1S(=O)(=O)c1ccccc1F | – | – | – | – | 300 µM | > 300 µM | –
62 | CCOC(=O)c1cccn1S(=O)(=O)c1cc([N+](=O)[O-])ccc1Cl | – | – | – | – | 6 µM | > 6 µM | –
63 | COC(=O)c1cccn1S(=O)(=O)c1ccccc1N | – | – | – | – | > 300 µM | 22 µM | >14
64 | Cc1cn([C@H]2C[C@H](N=[N+]=[N-])[C@@H](CO)O2)c(=O)[nH]c1=O [ZIDOVUDINE] | – | – | – | – | > 20 µM | – | >2000
65 | CCOC(=O)c1cccn1S(=O)(=O)c1cc(Cl)ccc1NC(C)=O | > 20 µM | > 20 µM | > 20 µM | > 20 µM | > 300 µM | 1 µM | >=300
66 | CCOC(=O)c1cccn1S(=O)(=O)c1cc(Cl)c(Cl)cc1N | – | – | – | – | > 300 µM | 12 µM | >25
67 | Cc1ccnc2c1NC(=O)c1cccnc1N2C1CC1 [NEVIRAPINE] | – | – | – | > 20 µM | < 300 µM | – | –
68 | CCOC(=O)c1cccn1S(=O)(=O)c1ccccc1F | – | – | – | – | 132 µM | 13 µM | 10
